Assay results reported in patent US20230226005A1, “Methods of Treating, Ameliorating, Shortening Duration, and/or Reversing Symptoms and/or Complications of a Coronavirus Infection” (Yale University, priority 2020, published 2023).

Key:
Type in all cases: in vivo
COVID-19 infection [1] = experiment: Phase IIa study: chest/respiratory-family symptom score
COVID-19 infection [2] = experiment: Phase IIa study: gastrointestinal-family symptom score; details: for gastrointestinal-family symptoms, Fitzmaurice mixed effects model, Effect: Camostat vs Placebo
COVID-19 infection [3] = experiment: Phase IIa study: nose-family symptom score

`CN(C)C(=O)COC(=O)Cc1ccc(OC(=O)c2ccc(NC(=N)N)cc2)cc1` [camostat, 4-[[4-[(Aminoiminomethyl)amino]benzoyl]oxy]benzeneacetic acid 2-(dimethylamino)-2-oxoethyl ester] was tested, and the “chest/respiratory-family symptom score, Fitzmaurice model, Camostat” value (COVID-19 infection [1]; day 7) was 6.2 (0.8), the “chest/respiratory-family symptom score, Fitzmaurice model, Effect (placebo vs camostat)” value (COVID-19 infection [1]; day 7) was −0.7 (0.9) and the “chest/respiratory-family symptom score, Fitzmaurice model, Camostat” value (COVID-19 infection [1]; day 8) was 5.7 (0.8). For the same molecule, the “chest/respiratory-family symptom score, Fitzmaurice model, Effect (placebo vs camostat)” value (COVID-19 infection [1]; day 8) was −1.4 (0.9), the “chest/respiratory-family symptom score, Fitzmaurice model, Camostat” value (COVID-19 infection [1]; day 9) was 5.4 (0.8) and the “chest/respiratory-family symptom score, Fitzmaurice model, Effect (placebo vs camostat)” value (COVID-19 infection [1]; day 9) was −1.2 (0.9). For the same molecule, the “chest/respiratory-family symptom score, Fitzmaurice model, Camostat” value (COVID-19 infection [1]; day 10) was 4.9 (0.8), the “chest/respiratory-family symptom score, Fitzmaurice model, Effect (placebo vs camostat)” value (COVID-19 infection [1]; day 10) was −1 (0.9) and the “chest/respiratory-family symptom score, Fitzmaurice model, Camostat” value (COVID-19 infection [1]; day 11) was 4.2 (0.8). For the same molecule, the “chest/respiratory-family symptom score, Fitzmaurice model, Effect (placebo vs camostat)” value (COVID-19 infection [1]; day 11) was −0.5 (0.9), the “chest/respiratory-family symptom score, Fitzmaurice model, Camostat” value (COVID-19 infection [1]; day 12) was 4 (0.8) and the “chest/respiratory-family symptom score, Fitzmaurice model, Effect (placebo vs camostat)” value (COVID-19 infection [1]; day 12) was −1 (0.9). For the same molecule, the “chest/respiratory-family symptom score, Fitzmaurice model, Camostat” value (COVID-19 infection [1]; day 13) was 3.9 (0.9), the “chest/respiratory-family symptom score, Fitzmaurice model, Effect (placebo vs camostat)” value (COVID-19 infection [1]; day 13) was −1.1 (0.9) and the “chest/respiratory-family symptom score, Fitzmaurice model, Camostat” value (COVID-19 infection [1]; day 14) was 3.5 (0.9). The “chest/respiratory-family symptom score, Fitzmaurice model, Effect (placebo vs camostat)” value (COVID-19 infection [1]; day 14) was −0.8 (0.9), the “gastrointestinal-family symptoms, Fitzmaurice mixed effects model, Camostat” value (shortened to “gastrointestinal-family symptoms … Camostat”) (COVID-19 infection [2]; Day 0) was 2.1 (0.2) and the “gastrointestinal-family symptoms … Camostat” value (COVID-19 infection [2]; Day 1) was 2.4 (0.3). The “gastrointestinal-family symptoms, Fitzmaurice mixed effects model, Effect” value (COVID-19 infection [2]; Day 1) was −0.4 (0.4), the “gastrointestinal-family symptoms … Camostat” value (COVID-19 infection [2]; Day 2) was 2 (0.3) and the “gastrointestinal-family symptoms, Fitzmaurice mixed effects model, Effect” value (COVID-19 infection [2]; Day 2) was −0.1 (0.4). The “gastrointestinal-family symptoms … Camostat” value (COVID-19 infection [2]; Day 3) was 1.6 (0.3), the “gastrointestinal-family symptoms, Fitzmaurice mixed effects model, Effect” value (COVID-19 infection [2]; Day 3) was 0.1 (0.4) and the “gastrointestinal-family symptoms … Camostat” value (COVID-19 infection [2]; Day 4) was 1 (0.3). For the same molecule, the “gastrointestinal-family symptoms, Fitzmaurice mixed effects model, Effect” value (COVID-19 infection [2]; Day 4) was 0.8 (0.4), the “gastrointestinal-family symptoms … Camostat” value (COVID-19 infection [2]; Day 5) was 0.9 (0.3) and the “gastrointestinal-family symptoms, Fitzmaurice mixed effects model, Effect” value (COVID-19 infection [2]; Day 5) was 0.5 (0.4). The “gastrointestinal-family symptoms … Camostat” value (COVID-19 infection [2]; Day 6) was 0.8 (0.3), the “gastrointestinal-family symptoms, Fitzmaurice mixed effects model, Effect” value (COVID-19 infection [2]; Day 6) was 0.6 (0.4) and the “gastrointestinal-family symptoms … Camostat” value (COVID-19 infection [2]; Day 7) was 0.7 (0.3). For the same molecule, the “gastrointestinal-family symptoms, Fitzmaurice mixed effects model, Effect” value (COVID-19 infection [2]; Day 7) was 0.4 (0.4), the “gastrointestinal-family symptoms … Camostat” value (COVID-19 infection [2]; Day 8) was 0.6 (0.3) and the “gastrointestinal-family symptoms, Fitzmaurice mixed effects model, Effect” value (COVID-19 infection [2]; Day 8) was 0.5 (0.4). For the same molecule, the “gastrointestinal-family symptoms … Camostat” value (COVID-19 infection [2]; Day 9) was 0.5 (0.3), the “gastrointestinal-family symptoms, Fitzmaurice mixed effects model, Effect” value (COVID-19 infection [2]; Day 9) was 0.5 (0.4) and the “gastrointestinal-family symptoms … Camostat” value (COVID-19 infection [2]; Day 10) was 0.8 (0.3). The “gastrointestinal-family symptoms, Fitzmaurice mixed effects model, Effect” value (COVID-19 infection [2]; Day 10) was 0.2 (0.4), the “gastrointestinal-family symptoms … Camostat” value (COVID-19 infection [2]; Day 11) was 0.5 (0.3) and the “gastrointestinal-family symptoms, Fitzmaurice mixed effects model, Effect” value (COVID-19 infection [2]; Day 11) was 0.2 (0.4). For the same molecule, the “gastrointestinal-family symptoms … Camostat” value (COVID-19 infection [2]; Day 12) was 0.4 (0.3), the “gastrointestinal-family symptoms, Fitzmaurice mixed effects model, Effect” value (COVID-19 infection [2]; Day 12) was 0.3 (0.4) and the “gastrointestinal-family symptoms … Camostat” value (COVID-19 infection [2]; Day 13) was 0.5 (0.3). For the same molecule, the “gastrointestinal-family symptoms, Fitzmaurice mixed effects model, Effect” value (COVID-19 infection [2]; Day 13) was 0.1 (0.4), the “gastrointestinal-family symptoms … Camostat” value (COVID-19 infection [2]; Day 14) was 0.3 (0.3) and the “gastrointestinal-family symptoms, Fitzmaurice mixed effects model, Effect” value (COVID-19 infection [2]; Day 14) was 0.4 (0.4). The “nose-family symptom score, Fitzmaurice model, Camostat” value (COVID-19 infection [3]; day 0) was 7.6 (0.5), the “nose-family symptom score, Fitzmaurice model, Camostat” value (COVID-19 infection [3]; day 1) was 6.6 (0.6) and the “nose-family symptom score, Fitzmaurice model, Effect (placebo vs camostat)” value (COVID-19 infection [3]; day 1) was 1.3 (0.7). The “nose-family symptom score, Fitzmaurice model, Camostat” value (COVID-19 infection [3]; day 2) was 6.6 (0.6), the “nose-family symptom score, Fitzmaurice model, Effect (placebo vs camostat)” value (COVID-19 infection [3]; day 2) was 0 (0.7) and the “nose-family symptom score, Fitzmaurice model, Camostat” value (COVID-19 infection [3]; day 3) was 5.7 (0.6). For the same molecule, the “nose-family symptom score, Fitzmaurice model, Effect (placebo vs camostat)” value (COVID-19 infection [3]; day 3) was 0.5 (0.7), the “nose-family symptom score, Fitzmaurice model, Camostat” value (COVID-19 infection [3]; day 4) was 5.6 (0.6) and the “nose-family symptom score, Fitzmaurice model, Effect (placebo vs camostat)” value (COVID-19 infection [3]; day 4) was 0 (0.7). The “nose-family symptom score, Fitzmaurice model, Camostat” value (COVID-19 infection [3]; day 5) was 5.3 (0.6), the “nose-family symptom score, Fitzmaurice model, Effect (placebo vs camostat)” value (COVID-19 infection [3]; day 5) was 1 (0.7) and the “nose-family symptom score, Fitzmaurice model, Camostat” value (COVID-19 infection [3]; day 6) was 3.9 (0.6). For the same molecule, the “nose-family symptom score, Fitzmaurice model, Effect (placebo vs camostat)” value (COVID-19 infection [3]; day 6) was 1.4 (0.7), the “nose-family symptom score, Fitzmaurice model, Camostat” value (COVID-19 infection [3]; day 7) was 3.6 (0.6) and the “nose-family symptom score, Fitzmaurice model, Effect (placebo vs camostat)” value (COVID-19 infection [3]; day 7) was 1.2 (0.7). The “nose-family symptom score, Fitzmaurice model, Camostat” value (COVID-19 infection [3]; day 8) was 3.3 (0.6), the “nose-family symptom score, Fitzmaurice model, Effect (placebo vs camostat)” value (COVID-19 infection [3]; day 8) was 1.5 (0.7) and the “nose-family symptom score, Fitzmaurice model, Camostat” value (COVID-19 infection [3]; day 9) was 2.9 (0.6). The “nose-family symptom score, Fitzmaurice model, Effect (placebo vs camostat)” value (COVID-19 infection [3]; day 9) was 1.3 (0.7), the “nose-family symptom score, Fitzmaurice model, Camostat” value (COVID-19 infection [3]; day 10) was 2.9 (0.6) and the “nose-family symptom score, Fitzmaurice model, Effect (placebo vs camostat)” value (COVID-19 infection [3]; day 10) was 0.9 (0.7). For the same molecule, the “nose-family symptom score, Fitzmaurice model, Camostat” value (COVID-19 infection [3]; day 11) was 3 (0.6), the “nose-family symptom score, Fitzmaurice model, Effect (placebo vs camostat)” value (COVID-19 infection [3]; day 11) was 0.4 (0.7) and the “nose-family symptom score, Fitzmaurice model, Camostat” value (COVID-19 infection [3]; day 12) was 2.5 (0.6). The “nose-family symptom score, Fitzmaurice model, Effect (placebo vs camostat)” value (COVID-19 infection [3]; day 12) was 0.7 (0.7), the “nose-family symptom score, Fitzmaurice model, Camostat” value (COVID-19 infection [3]; day 13) was 2.7 (0.6) and the “nose-family symptom score, Fitzmaurice model, Effect (placebo vs camostat)” value (COVID-19 infection [3]; day 13) was 0.1 (0.7). The “nose-family symptom score, Fitzmaurice model, Camostat” value (COVID-19 infection [3]; day 14) was 2.7 (0.6) and the “nose-family symptom score, Fitzmaurice model, Effect (placebo vs camostat)” value (COVID-19 infection [3]; day 14) was 0.2 (0.8).
